Test results as given in patent US9884806B2, “Cyclic vinylogous amides as bromodomain inhibitors” (ICAHN SCHOOL OF MEDICINE AT MOUNT SINAI, priority 2013, dated 2018).

Legend:
[1] = biological target: T1, first bromodomain (BrD1) of human BRD4 (Homo sapiens, UniProt O60885); assay: Fluorescence anisotropy binding assay (competition with FITC-labeled MS417 probe); details: FITC-MS417 probe 80 nM, PBS pH 7.4, 1 hour, 25° C., read-out: BRD4_1 IC50
T1 construct: the first bromodomain (BrD1) of human BRD4; poly-His (cleaved yes); made in house
Protocol: Fluorescence Anisotropy Binding Assay
Expression and purification of the first bromodomain (BrD1) of human BRD4 in poly-His tag form was performed using a procedure described in the literature [See Zeng et al. Structure 16, 643-652 (2008) and Zhang et al., J Biol Chem 287, 28840-28851 (2012).] The protein was purified by using affinity chromatography on a nickel-IDA column (Invitrogen), followed by the removal of poly-His tag by thrombin cleavage.
Binding affinity of the newly synthesized compounds to the BRD4 BrD1 was assessed in a fluorescence anisotropy assay using a fluorescein isothiocyanate (FITC)-labeled MS417 as an assay probe (Zhang et al. 2008 op.cit.). Competition binding was performed with a BrD protein (0.25 to 1 μM) and the fluorescent probe (80 nM), and increasing concentration of unlabeled competing ligand in a PBS buffer (pH 7.4) in total volume of 80 μL. Measurements were obtained after 1 hour incubation of the fluorescent ligand and the protein at 25° C. with Safire 2 microplate reader (Tecan). In the assay, fluorescent ligand concentration was ≦2Kd, and protein concentration was set at which 50-80% of fluorescent ligand is bound. Dissociation constant of a competing ligand was calculated with the correction to Cheng-Prussoff equation introduced by Nicolovska-Coleska and colleagues [Nikolovska-Coleska, Z. et al., Anal Biochem 332, 261-273 (2004). Assuming one-site competitive binding model, the equation used to calculate Ki's from IC50 values recovered from fitting data using Prism:
[formula] where [I50] is the concentration of free inhibitor at 50% inhibition, [L50], the concentration of free labeled ligand at 50% inhibition, and [P0], concentration of free protein at 0% inhibition. Note that Kd for each protein-probe pair is the limit of resolvable Ki in a competition assay.

BRD4_2 = biological target: T2, BRD4_2 (Homo sapiens, UniProt O60885); assay: Fluorescence anisotropy binding assay (competition with FITC-labeled MS417 probe), BRD4_2; details: FITC-MS417 probe 80 nM, PBS pH 7.4, 1 hour, 25° C.
T2 construct: contains two tandem bromodomains (BrD1 and BrD2)

Row | IC50 [1] | IC50 (BRD4_2) | SMILES
1 | 1 to 10 µM | 1 to 10 µM | CC1=C(Nc2cccc(-c3cn(-c4ccccc4)nn3)c2)CCC1=O [Examples 06-2, 2-methyl-3-((3-(1-phenyl-1H-1,2,3-triazol-4-yl)phenyl)amino)cyclopent-2-enone]
2 | 1 to 10 µM | > 10 µM | CC1=C(Nc2cc(C(=O)Nc3ccc(C(=O)O)cc3C)ccc2Cl)CCCC1=O [Example 04-97, 4-(4-chloro-3-((2-methyl-3-oxocyclohex-1-en-1-yl)amino)benzamido)-3-methylbenzoic acid]
3 | 1 to 10 µM | 1 to 10 µM | COc1ccc(NC(=O)c2ccc(NC3=C(C)C(=O)CC3)c(F)c2)cc1 [Example 05-17, 3-fluoro-N-(4-methoxyphenyl)-4-((2-methyl-3-oxocyclopent-1-en-1-yl)amino)benzamide]
4 | < 1 µM | 1 to 10 µM | COc1ccccc1NC(=O)c1ccc(NC2=C(C)C(=O)CCC2)c(Cl)c1 [Example 05-14, 3-chloro-N-(2-methoxyphenyl)-4-((2-methyl-3-oxocyclohex-1-en-1-yl)amino)benzamide]
5 | 1 to 10 µM | 1 to 10 µM | COC(=O)c1ccc(C)c(NC(=O)c2ccc(Cl)c(NC3=C(C)C(=O)CCC3)c2)c1 [Example 04-93, methyl 3-(4-chloro-3-((2-methyl-3-oxocyclohex-1-en-1-yl)amino)benzamido)-4-methylbenzoate]
6 | 1 to 10 µM | 1 to 10 µM | CC1=C(Nc2ccc(C(=O)O)cc2Cl)CCC1=O [Examples 02-2]
7 | > 10 µM | > 10 µM | COC(=O)c1ccc(Br)c(NC2=C(C)C(=O)CCC2)c1 [Examples 02-9]
8 | < 1 µM | 1 to 10 µM | CC1=C(Nc2cccc(Nc3ccccc3C)c2Cl)CCCC1=O [Example 05-80, 3-((2-chloro-3-(o-tolylamino)phenyl)amino)-2-methylcyclohex-2-enone]
9 | 1 to 10 µM | 1 to 10 µM | CNC(=O)c1ccc(NC2=C(C)C(=O)CC2)c(Cl)c1 [Example 04-13, 3-chloro-N-methyl-4-((2-methyl-3-oxocyclopent-1-en-1-yl)amino)benzamide]
10 | 1 to 10 µM | 1 to 10 µM | COc1cc(C(=O)Nc2ccccc2)ccc1NC1=C(C)C(=O)CC1 [Example 04-56, 3-methoxy-4-((2-methyl-3-oxocyclopent-1-en-1-yl)amino)-N-phenylbenzamide]
11 | 1 to 10 µM | 1 to 10 µM | COc1cc(NC2=C(C)C(=O)CC2)ccc1C(=O)Nc1ccc(C)cc1 [Example 04-74, 2-methoxy-4-((2-methyl-3-oxocyclopent-1-en-1-yl)amino)-N-(p-tolyl)benzamide]
12 | 1 to 10 µM | 1 to 10 µM | CC1=C(Nc2cccc(C(=O)Nc3ccccc3F)c2)CCC1=O [Example 04-8]
13 | > 10 µM | > 10 µM | CC1=C(N[C@H]2CC[C@@H](C(=O)Nc3ccccc3)CC2)CCC1=O [Example 04-36, (1S,4S)-4-((2-methyl-3-oxocyclopent-1-en-1-yl)amino)-N-phenylcyclohexane-carboxamide]
14 | 1 to 10 µM | > 10 µM | CC1=C(Nc2cccc(NC(=O)c3ccccc3C)c2Cl)CCCC1=O [Example 05-50, N-(2-chloro-3-((2-methyl-3-oxocyclohex-1-en-1-yl)amino)phenyl)-2-methylbenzamide]
15 | 1 to 10 µM | 1 to 10 µM | CC1=C(Nc2ccc(C(=O)Nc3ccccc3)cc2Cl)CCC1=O [Example 04-16, 3-chloro-4-((2-methyl-3-oxocyclopent-1-en-1-yl)amino)-N-phenylbenzamide]
16 | > 10 µM | > 10 µM | N#CC1=C(Nc2cc(C(=O)O)ccc2Cl)CCCC1=O [Example 05-33, 4-chloro-3-((2-cyano-3-oxocyclohex-1-en-1-yl)amino)benzoic acid]
17 | > 10 µM | > 10 µM | CC1=C(Nc2ccc(C(=O)Nc3ccc(C)cc3)c(Cl)c2)CCC1=O [Example 04-51, 2-chloro-4-((2-methyl-3-oxocyclopent-1-en-1-yl)amino)-N-(p-tolyl)benzamide]
18 | 1 to 10 µM | > 10 µM | CC1=C(Nc2ccc(C(=O)O)cc2F)CCC1=O [Examples 02-6]
19 | 1 to 10 µM | 1 to 10 µM | CC1=C(Nc2ccc(C(=O)Nc3cccc4ccccc34)cc2C)CCC1=O [Example 04-79, 3-methyl-4-((2-methyl-3-oxocyclopent-1-en-1-yl)amino)-N-(naphthalen-1-yl)benzamide]

Row | IC50 [1] | IC50 (BRD4_2) | SMILES
20 | > 10 µM | > 10 µM | CC1=C(Nc2cc(C(=O)Nc3cccc(C(=O)O)c3C)ccc2Cl)CCCC1=O [Example 04-95, 3-(4-chloro-3-((2-methyl-3-oxocyclohex-1-en-1-yl)amino)benzamido)-2-methylbenzoic acid]
21 | 1 to 10 µM | > 10 µM | CC1=C(Nc2cccc(C(=O)Nc3ccncc3)c2)CCC1=O [Example 04-3]
22 | 1 to 10 µM | 1 to 10 µM | COc1cc(NC2=C(C)C(=O)CC2)ccc1C(=O)NC1CCCCC1 [Example 04-66, N-cyclohexyl-2-methoxy-4-((2-methyl-3-oxocyclopent-1-en-1-yl)amino)-benzamide]
23 | 1 to 10 µM | 1 to 10 µM | NC(=O)c1ccc(NC2=CC(=O)CC2)cc1 [Example 01-2]
24 | < 1 µM | 1 to 10 µM | COc1ccc(Cn2cc(-c3cccc(NC4=C(C)C(=O)CC4)c3)nn2)cc1 [Example 06-15, 3-((3-(1-(4-methoxybenzyl)-1H-1,2,3-triazol-4-yl)phenyl)amino)-2-methylcyclopent-2-enone]
25 | 1 to 10 µM | > 10 µM | CC1=C(Nc2ccc(C(=O)Nc3cccc4ccccc34)c(Cl)c2)CCC1=O [Example 04-44, 2-chloro-4-((2-methyl-3-oxocyclopent-1-en-1-yl)amino)-N-(naphthalen-1-yl)-benzamide]
26 | 1 to 10 µM | 1 to 10 µM | COc1cc(C(=O)Nc2cccc(C)c2)ccc1NC1=C(C)C(=O)CC1 [Example 04-61, 3-methoxy-4-((2-methyl-3-oxocyclopent-1-en-1-yl)amino)-N-(m-tolyl)benzamide]
27 | 1 to 10 µM | 1 to 10 µM | COc1cccc(NC(=O)c2ccc(NC3=C(C)C(=O)CC3)cc2OC)c1 [Example 04-70, 2-methoxy-N-(3-methoxyphenyl)-4-((2-methyl-3-oxocyclopent-1-en-1-yl)amino)-benzamide]
28 | 1 to 10 µM | 1 to 10 µM | COc1cc(C(=O)Nc2ccc(C)cc2)ccc1NC1=C(C)C(=O)CC1 [Example 04-62, 3-methoxy-4-((2-methyl-3-oxocyclopent-1-en-1-yl)amino)-N-(p-tolyl)benzamide]
29 | > 10 µM | > 10 µM | COc1ccc(NC(=O)c2ccc(Cl)c(NC3=C(C#N)C(=O)CCC3)c2)cc1 [Example 05-35, 4-chloro-3-((2-cyano-3-oxocyclohex-1-en-1-yl)amino)-N-(4-methoxyphenyl)benzamide]
30 | 1 to 10 µM | 1 to 10 µM | CC1=C(Nc2ccc(C(=O)O)cc2I)CCC1=O [Examples 02-8]
31 | 1 to 10 µM | 1 to 10 µM | COc1ccc(NC(=O)c2ccc(NC3=C(C)C(=O)CC3)c(C)c2)cc1 [Example 04-83, N-(4-methoxyphenyl)-3-methyl-4-((2-methyl-3-oxocyclopent-1-en-1-yl)amino)-benzamide]
32 | 1 to 10 µM | > 10 µM | CC1=C(Nc2cccc(C(=O)Nc3ccc(C)cc3)c2)CCC1=O [Example 04-7]
33 | 1 to 10 µM | > 10 µM | CC1=C(Nc2ccc(C(=O)O)cc2Br)CCC1=O [Examples 02-7]
34 | 1 to 10 µM | 1 to 10 µM | COc1cc(C(=O)Nc2cccc3ccccc23)ccc1NC1=C(C)C(=O)CC1 [Example 04-55, 3-methoxy-4-((2-methyl-3-oxocyclopent-1-en-1-yl)amino)-N-(naphthalen-1-yl)-benzamide]
35 | 1 to 10 µM | > 10 µM | COC(=O)c1cccc(NC2=C(C)C(=O)CC2)c1 [Example 01-4]
36 | > 10 µM | > 10 µM | CC1=C(N[C@H]2CC[C@H](C(=O)O)CC2)CCC1=O [Example 01-33, trans-(1R,4R)-4-((2-methyl-3-oxocyclopent-1-en-1-yl)amino)cyclo6hexane-carboxylic acid]
37 | > 10 µM | > 10 µM | CC1=C(N[C@H]2CC[C@H](C(=O)Nc3ccc(C)cc3)CC2)CCC1=O [Example 04-32, (1R,4R)-4-((2-methyl-3-oxocyclopent-1-en-1-yl)amino)-N-(p-tolyl)-cyclohexanecarboxamide]
38 | < 1 µM | 1 to 10 µM | CC1=C(Nc2ccc(C(=O)Nc3cccc(C)c3)cc2Cl)CCC1=O [Example 04-21, 3-chloro-4-((2-methyl-3-oxocyclopent-1-en-1-yl)amino)-N-(m-tolyl)benzamide]
